These results are taken from patent US20100184852A1, “ORGANIC COMPOUNDS FOR TREATMENT OF DISORDERS CONNECTED TO IMPAIRED NEUROTRANSMISSION” (priority 2006, published 2010).

One experiment concerns mice. Briefly: Marble burying test. Format: in vivo, mouse. The conditions noted are these: 10 mg/kg p.o., −24, −5, −1 h. How it is done: A celery seed oil extract rich in phthalides was tested in the marble burying test. A crude extract from celery seed oil (Apium graveolens) obtained by supercritical CO2 fluid extraction of the seed was bought from Guanzhou Honsea Sunshine Bio Science & Technology, Guangzhou, 510620, Peopole's Republic of China. This extract (66.15 g) was distilled for about 2 hours in a ca. 30 cm Kugelrohr at a temperature of 125° C., under a pressure of 0.02 mbar. The distillate contained 18.12% butylphthalide, 0.87% butylidenphthalide, 35.37% senkyanolide, 20.99% sedanolide, 2.23% C16-fatty acid and 3.14% oleic acid, based on the total weight of the celery seed oil extract.
The marble burying test was performed in Type II cages (16×22 cm), which were filled with normal rodent bedding material, up to a depth of 4 cm, and the bedding was flattened gently by hand to ensure an even surface. […]
At the start of the test, mice were individually placed into the test cages and left to explore for 30 min. At the end of the test, the mice were removed from the cages and the number of marbles which have been buried (i.e. at least ⅔ covered with bedding) were counted. […]
Celery seed oil extract was evaluated after sub-chronic oral administration at 50, 100, 200, 300 mg/kg with fluoxetine at 10 mg/kg as reference substance and corn oil as vehicle. […]

Experiment [1] addresses T1, human serotonin re-uptake transporter (hSERT) (Homo sapiens, UniProt P31645).
T1 construct: host or cells: HEK-293
Briefly: Serotonin uptake inhibition in HEK-293 cells expressing hSERT. The format is cell-based. The conditions noted are these: transfected HEK-293 cells; 20 nM (3H) serotonin, 30 minutes; average +/− s.e.m.; read-out: IC50 for tritiated serotonin uptake. How it is done: HEK-293 cells stably expressing the human serotonin re-uptake transporter (hSERT) were obtained from R. Blakely, Vanderbilt University, USA. The cells were routinely grown in Dulbeco's Modified Eagles Medium, purchased from Bioconcept, Allschwil, Switzerland containing 10% fetal calf serum, penicillin, streptomycin, L-glutamine and the antibiotic G418 and passaged by trypsinisation. One day prior to the assay cells were seeded in the above mentioned medium. Immediately prior to the assay the medium was replaced by Krebs Ringers bicarbonate buffer, purchased from Sigma Chemicals Ltd., supplemented with 35 μM pargyline, 2.2 mM CaCl2, 1 mM ascorbic acid and 5 mM N-2-hydroxyethylpiperazine-N′-2-ethanesulfonic acid (buffer called “Hepes”). Serotonin uptake into the cells was determined by addition of radio-labeled (3H) serotonin (Amersham Biosciences GE Healthcare, Slough, UK) to a concentration of 20 nM, and incubation for 30 minutes at room temperature. Following removal of unincorporated label by gentle washing three times with the above buffer, incorporated serotonin was quantified by liquid scintillation counting.
The effect of the compounds of formula I on the serotonin uptake was determined by its inclusion in the assay at a range of concentrations between 0.03 and 100 μM for 10 minutes prior to and during the addition of (3H) serotonin/citalopram. Serotonin uptake via the transporter was inhibited by ligustilide, 3-butylphthalide, senkyunolide A, senkyunolide C, senkyunolide B, and cnidilide, respectively, in a dose dependent manner, with IC50 values as shown in Table 2.

Experiment [2] concerns the target T2, Monoamine oxidase B (MAO-B) (Homo sapiens, UniProt P27338).
T2 sequence (P27338 1-520): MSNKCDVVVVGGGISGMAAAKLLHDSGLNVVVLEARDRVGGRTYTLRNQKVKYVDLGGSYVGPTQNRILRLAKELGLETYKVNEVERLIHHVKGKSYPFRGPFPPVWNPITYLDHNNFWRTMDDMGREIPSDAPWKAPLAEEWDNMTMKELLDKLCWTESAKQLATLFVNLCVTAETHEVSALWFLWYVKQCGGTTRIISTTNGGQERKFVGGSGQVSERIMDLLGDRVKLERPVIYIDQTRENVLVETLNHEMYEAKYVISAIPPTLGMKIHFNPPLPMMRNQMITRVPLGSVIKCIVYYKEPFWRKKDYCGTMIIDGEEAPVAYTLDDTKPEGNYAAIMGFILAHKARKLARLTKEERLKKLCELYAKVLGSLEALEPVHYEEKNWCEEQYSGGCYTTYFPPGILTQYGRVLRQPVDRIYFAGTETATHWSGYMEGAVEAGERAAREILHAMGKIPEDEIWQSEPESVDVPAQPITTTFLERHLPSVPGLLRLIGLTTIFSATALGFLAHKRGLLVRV
Briefly: Monoaminooxidase B inhibition (H2O2/vanillic acid/HRP readout). The format is biochemical. The conditions noted are these: substrate benzylamine 0.5 mM; +/− s.e.m.; read-out: IC50 [μM] for Inhibition of MAO-B. How it is done:
(§1) The organic amines p-tyramine or benzylamine were used as substrates for the Monoamine oxidase A (MAO-A) and B (MAO-B) enzymes respectively. The H2O2 produced by this reaction was quantified by reaction with vanillic acid, catalysed by horse radish peroxidase (HRP).
(§2) The reactions were carried out in polystyrene microtitre plates. The MAO enzymes (final concentration 2 U/ml) were mixed with either p-tyramine (Sigma, final concentration 0.5 mM) or benzylamine (Sigma, final concentration 0.5 mM) as appropriate and the chromogenic solution (containing vanillic acid (Fluka), 4-aminoantipyrine (Fluka) and horse radish peroxidase (Sigma), final concentrations 0.25 mM, 0.125 mM and 1 U/ml respectively) in 0.2 M potassium phosphate buffer pH 7.6. The reactions were followed in a microtitre plate absorbance reader eg Spectramax M5 (Molecular Devices Corporation). Absorbance readings at 495 nm were taken every 15 seconds for 40 minutes and the initial reaction velocities calculated by linear regression using SOFTmaxPro (Molecular Devices Corporation).
(§3) The effect of ligustilide, 3-butylphthalide, senkyunolide C and cnidilide on the monoamine oxidase enzymes was determined by their inclusion in the assay at a range of concentrations between 0.03 and 100 μM for 10 minutes prior to and during the incubation with substrate. To determine the effect of the compounds on the HRP catalyzed portion of the reaction, the MAO enzyme was replaced by H2O2 (Molecular Probes, final concentration 0.2 mM). The reactions containing MAO-A and MAO-B were both inhibited by […] according to formula I in a dose dependent manner, whilst the control reaction, was unaffected. The measured IC50 values for inhibition of monoamine oxidase activity by ligustilide, 3-butylphthalide, senkyunolide C and enidilide, respectively, are shown in Table 3.

Experiment [3] addresses T3, Monoamine oxidase A (MAO-A) (Homo sapiens, UniProt P21397).
T3 sequence (P21397 1-527): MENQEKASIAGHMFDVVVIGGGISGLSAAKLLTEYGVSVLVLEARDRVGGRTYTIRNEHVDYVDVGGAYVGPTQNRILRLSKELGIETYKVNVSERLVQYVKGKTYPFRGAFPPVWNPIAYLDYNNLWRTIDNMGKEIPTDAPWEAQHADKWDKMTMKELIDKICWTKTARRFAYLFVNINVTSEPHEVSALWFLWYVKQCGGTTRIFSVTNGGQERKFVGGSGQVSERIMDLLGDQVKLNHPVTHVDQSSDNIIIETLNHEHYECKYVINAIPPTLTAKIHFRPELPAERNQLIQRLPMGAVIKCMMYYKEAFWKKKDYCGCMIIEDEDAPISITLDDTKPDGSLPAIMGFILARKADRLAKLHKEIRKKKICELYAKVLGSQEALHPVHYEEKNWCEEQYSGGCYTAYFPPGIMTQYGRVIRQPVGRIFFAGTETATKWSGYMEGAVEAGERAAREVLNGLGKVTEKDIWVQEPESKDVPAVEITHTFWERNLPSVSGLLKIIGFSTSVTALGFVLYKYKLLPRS
Briefly: Monoaminooxidase A inhibition (H2O2/vanillic acid/HRP readout). The conditions noted are these: substrate p-tyramine 0.5 mM; +/− s.e.m.; read-out: IC50 [μM] for Inhibition of MAO-A. The format is biochemical. How it is done: as §1, §2, §3

Molecules are shown by their SMILES. A value given as a limit tells only on which side of the number the result lay.

T1 sequence (P31645 whole entry): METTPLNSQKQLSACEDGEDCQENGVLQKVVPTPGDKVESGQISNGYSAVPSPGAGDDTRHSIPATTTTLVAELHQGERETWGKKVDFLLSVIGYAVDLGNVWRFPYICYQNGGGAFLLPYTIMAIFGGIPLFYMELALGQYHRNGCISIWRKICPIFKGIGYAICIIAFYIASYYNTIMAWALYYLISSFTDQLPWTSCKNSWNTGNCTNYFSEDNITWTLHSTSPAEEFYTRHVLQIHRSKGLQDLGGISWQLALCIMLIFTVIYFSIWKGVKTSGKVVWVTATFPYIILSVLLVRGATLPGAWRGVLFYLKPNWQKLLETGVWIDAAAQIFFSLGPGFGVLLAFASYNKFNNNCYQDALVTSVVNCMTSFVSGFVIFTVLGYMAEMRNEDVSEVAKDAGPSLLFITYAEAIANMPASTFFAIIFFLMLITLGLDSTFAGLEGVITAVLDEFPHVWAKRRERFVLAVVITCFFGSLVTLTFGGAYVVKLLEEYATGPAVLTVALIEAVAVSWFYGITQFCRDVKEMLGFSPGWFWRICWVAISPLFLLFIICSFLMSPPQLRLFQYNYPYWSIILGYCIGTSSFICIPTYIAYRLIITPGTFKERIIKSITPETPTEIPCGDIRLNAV

Regarding `CNCCC(Oc1ccc(C(F)(F)F)cc1)c1ccccc1` (stereo not drawn) [Fluoxetine], the “% MARBLES BURIED” value in the experiment on mice was −78%.

One may read the IC50 as the point on the concentration scale where inhibition reaches its midpoint. On to `CCC/C=C1\OC(=O)c2c(O)cccc21` [Senkyunolide B], for which the IC50 in experiment [1] worked out at 75 µM.

For the compound `CCCC[C@@H]1OC(=O)C2=C1CCC=C2` [Senkyunolide A], the IC50 in experiment [1] was found to be 32.5 µM.

In the case of `CCCC[C@@H]1OC(=O)[C@@H]2C=CCC[C@H]12` [Cnidilide], the IC50 in experiment [1] is 40.5 µM; in experiment [2] it was 109 µM; in experiment [3], > 100 µM.

For the compound `CCC/C=C1\OC(=O)c2ccc(O)cc21` [Senkyunolide C], the IC50 in experiment [1] came to 31.4 µM; in experiment [2], 2.14 µM; in experiment [3] it was 2.72 µM.
